Measured values reported in US20070078085A1, “Methods and compositions for the utilization and targeting of osteomimicry” (priority 2004, published 2007).

Tests used:
Assay type in all cases: cell-based, human
OC mRNA = experiment: Semi-quantitative RT-PCR of endogenous OC mRNA; settings: LNCaP and C4-2B cells (data not shown)
Procedure: (§1) Reverse Transcription-Polymerase Chain Reaction (RT-PCR) Analysis. Total RNA was isolated from confluent monolayers of cells using RNAZol B (Teltest Inc., Friendswood, Tex.). Five μg of total RNA was used as template and 0.15 μg of random hexanucleotide primers were added for reverse transcription and amplification in a reaction volume of 20 μl, according to the manufacturer's instruction (Invitrogen, Carlsbad, Calif.). After RT reaction, 3-5 μl of the 1st-strand cDNA was used for PCR with a PTC-100 programmable Thermal Controller (MJ Research Inc.). The oligonucleotide primer sets used for PCR analysis of cDNA are: hOC, 5′-[…]-3′ (forward) and 5′-[…]-3′ (reverse); hBSP, 5′-[…]-3′ (forward) and 5′-[…]-3′ (reverse); and glyceraldehyde phosphate dehydrogenase (GAPDH), 5′-[…]-3′ (forward) and 5′-[…]-3′ (reverse), respectively. The thermal profile for hOC amplification is 30 cycles starting with denaturation 1 min at 94° C., followed by 1 min of annealing at 55° C. and 1 min of extension at 72° C. For hBSP amplification the thermal profile is 35 cycles starting with denaturation 1 min at 94° C., followed by 30 s of annealing at 48° C. and 40 s of extension at 72° C. The program for GAPDH amplification is 25 cycles starting with denaturation 30 s at 94° C., followed by 30 s of annealing at 60° C. and 1 min of extension at 72° C. The RT-PCR products were analyzed by 1.2% agarose gel electrophoresis. Quantity one-4.1.1 Gel Doc gel documentation software (Bio-Rad) or NIH image were used for quantification of hOC and hBSP mRNA expression normalized by GAPDH mRNA expression.

BSP mRNA = experiment: Semi-quantitative RT-PCR of endogenous BSP mRNA; settings: LNCaP and C4-2B cells (data not shown)
Procedure: as §1

[1] = tested on: CRE-nuclear protein (CREB) complexes; experiment: Electrophoretic mobility shift assay (EMSA) with 32P-labeled CRE probe and nuclear extracts of treated cells; settings: nuclear extracts of C4-2B cells; H-89 10^−6 M
Procedure: Electrophoretic Mobility Shift Assay (EMSA). A LNCaP-lineaged metastatic human prostate cancer cell line, C4-2B, and the human osteosarcoma cell line MG63 were plated in 15-cm diameter tissue culture dishes in T-medium (with 5% serum) until 80% confluence. Cells were then switched to 1-day complete serum-free condition and then treated with or without ARCaP CM (15 μg/ml) or FSK (10^−5 M) for an additional 16 h. Nuclear extracts were prepared from C4-2B and MG63 for EMSA as described by Ausubel et al (37). Briefly, cells were washed with cold PBS twice, harvested and homogenized in hypotonic buffer (10 mM HEPES, pH 7.9, 1.5 mM MgCl2, 10 mM KCl, 0.5 mM DTT and 0.2 mM PMSF). After centrifugation, the nuclear pellets were stirred and incubated for 30 min in high-salt buffer (20 mM HEPES, pH 7.9, 25% glycerol, 1.5 mM MgCl2, 1.2 M KCl, 0.2 mM EDTA, 0.5 mM DTT and 0.2 mM PMSF) on ice. The nuclear pellets were centrifuged, and the nuclear extract supernatants were dialyzed twice against dialysis buffer (20 mM HEPES, pH 7.9, 20% glycerol, 100 mM KCl, 0.2 mM EDTA, 0.5 mM DTT and 0.2 mM PMSF) overnight. The concentration of nuclear proteins was determined by the Bradford method using Coomassie plus protein reagent (Pierce). Synthetic oligonucleotides were purified by PAGE. Appropriate pairs were annealed by heating up to 95° C. for 10 min and naturally cooled down to room temperature. […]

O=S(=O)(NCCNCC=Cc1ccc(Br)cc1)c1cccc2cnccc12 [H-89, N-[2-(p-bromocinnamylamino)ethyl]-5-isoquinolinesulfonamide] was tested, and the “induction of endogenous OC mRNA expression by ARCaP CM or FSK” value (OC mRNA) was “inhibited”, the “induction of endogenous BSP mRNA expression by ARCaP CM or FSK” value (BSP mRNA) was “inhibited” and the “ARCaP CM- and FSK-induced CRE binding to nuclear proteins” value [1] was “abolish”.
